Key:
Assay type in all cases: biochemical
PI3K-alpha = PI3K-alpha (Homo sapiens, UniProt P42336); assay: PI3K-alpha fluorescence polarization assay; settings: read-out: PI3 Kinase α IC50
Procedure: (§1) The reaction buffer was 20 mM HEPES, pH 7.5, 2 mM MgCl2, 0.05% CHAPS; and 0.01% βME (added fresh). The Stop/Detection Buffer was 100 mM HEPES, pH 7.5, 4 mM EDTA, 0.05% CHAPS; ATP 20 mM in water; PIP2 (diC8, Echelon, Salt Lake City Utah cat #P-4508) 1 mM in water (MW=856.5). The GST-GRP was 1.75 mg/mL or 1.4 mg/mL in 10% glycerol. The Red detector (TAMRA) was 2.5 μM. Nunc 384-well black polypropylene fluorescent plates were used for PI3K assays.
(§2) The assay is run by placing 5 μL of diluted enzyme per well, then 5 μL of diluted compound (or 9.5 μL enzyme then 0.5 μL compound in DMSO) is added and mixed. Then, 10 μL substrate is added to start the reaction. The samples are incubated 30-60 minutes, then the reaction is stopped by adding 20 μL stop/detector mix. PI3K is diluted with reaction buffer (e.g., 5 μL or 7.5 μL PI3K into 620 μL reaction buffer), and 5 μL of diluted enzyme is used per well. A 5 μL portion of reaction buffer or of drug diluted in buffer (e.g., 4 μL/100 so final DMSO is 1% in reaction) is added to each. Pipetting up and down mixes the samples. Alternatively, the enzyme can be diluted to 1215 μL. In this case 9.8 μL is added per well and 0.2 μL compound is added in DMSO.
(§3) To prepare 1 mL of substrate solution, 955 μL reaction buffer, 40 μL PIP2, and 2.5 μL ATP are mixed. 10 μL of substrate is added to each well to start the reaction. […] The stop/detector mix is prepared by mixing 4 μL Red detector and 1.6 μL or 2.0 μL GST-GRP with 1 mL stop buffer, which results in 10 nM probe and 70 nM GST-GRP. 20 μL of the stop/detector mix is added to each well to stop the reaction. The plates are read after 30-90 minutes keeping the red probe solutions dark. For the zero time point, stop/detector mix is added to the enzyme just before adding substrate. For an extra control, stop/detector mix is added to buffer (no enzyme) and substrate or to just buffer (no substrate). […] The recommended reaction has 0.06 μL per 20 μL (0.015 μg/20 μL) or 0.01125 μg/15 μL or 0.75 μg/mL.
(§4) Plates are read on machines with filters for TAMRA. The units are mP with no enzyme controls reading app 190-220 mP units. Fully active enzyme reduces fluorescence polarization down to 70-100 mP after 30 minutes. An active compound raises the mP values halfway to control or to 120-150 mP units.

Human mTOR = Human mTOR (Homo sapiens, UniProt P42345); assay: mTOR kinase assay (DELFIA format, purified enzyme); set-up: FLAG; settings: read-out: TOR Kinase IC50
PI3K-gamma = PI3K-gamma (Homo sapiens, UniProt P48736); assay: PI3K-gamma fluorescence polarization assay; settings: read-out: PI3 Kinase γ IC50
Sequence of PI3K-gamma (P48736 whole entry, species assumed): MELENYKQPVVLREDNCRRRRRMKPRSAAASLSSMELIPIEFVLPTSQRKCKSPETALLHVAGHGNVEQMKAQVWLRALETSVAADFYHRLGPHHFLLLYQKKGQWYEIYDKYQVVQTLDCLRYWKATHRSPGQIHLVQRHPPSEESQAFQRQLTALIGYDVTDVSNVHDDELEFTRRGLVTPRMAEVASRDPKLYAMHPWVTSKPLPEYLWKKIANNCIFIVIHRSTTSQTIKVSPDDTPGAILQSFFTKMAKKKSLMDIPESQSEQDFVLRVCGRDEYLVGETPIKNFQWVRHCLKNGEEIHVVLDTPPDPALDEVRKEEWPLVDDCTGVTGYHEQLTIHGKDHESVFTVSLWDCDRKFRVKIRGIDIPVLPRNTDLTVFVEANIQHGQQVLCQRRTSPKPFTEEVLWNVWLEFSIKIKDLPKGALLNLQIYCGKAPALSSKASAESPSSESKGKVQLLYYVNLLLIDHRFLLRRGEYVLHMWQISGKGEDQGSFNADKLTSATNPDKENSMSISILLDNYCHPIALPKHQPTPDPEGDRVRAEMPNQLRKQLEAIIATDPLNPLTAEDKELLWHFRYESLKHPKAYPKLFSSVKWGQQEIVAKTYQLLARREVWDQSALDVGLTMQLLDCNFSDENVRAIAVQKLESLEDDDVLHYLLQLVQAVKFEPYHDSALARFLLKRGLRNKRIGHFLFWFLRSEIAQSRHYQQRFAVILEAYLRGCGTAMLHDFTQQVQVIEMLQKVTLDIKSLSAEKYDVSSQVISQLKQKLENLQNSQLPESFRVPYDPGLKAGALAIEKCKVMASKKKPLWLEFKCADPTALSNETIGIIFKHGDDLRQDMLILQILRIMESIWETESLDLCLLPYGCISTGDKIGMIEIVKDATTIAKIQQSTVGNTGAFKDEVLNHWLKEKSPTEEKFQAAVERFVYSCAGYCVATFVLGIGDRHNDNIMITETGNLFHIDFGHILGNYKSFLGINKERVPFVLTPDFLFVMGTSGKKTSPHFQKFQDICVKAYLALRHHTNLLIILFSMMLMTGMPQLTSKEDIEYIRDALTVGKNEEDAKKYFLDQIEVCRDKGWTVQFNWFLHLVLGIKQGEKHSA
Procedure: as §1, §2, §3, §4

Sequence of PI3K-alpha (P42336 whole entry, species assumed): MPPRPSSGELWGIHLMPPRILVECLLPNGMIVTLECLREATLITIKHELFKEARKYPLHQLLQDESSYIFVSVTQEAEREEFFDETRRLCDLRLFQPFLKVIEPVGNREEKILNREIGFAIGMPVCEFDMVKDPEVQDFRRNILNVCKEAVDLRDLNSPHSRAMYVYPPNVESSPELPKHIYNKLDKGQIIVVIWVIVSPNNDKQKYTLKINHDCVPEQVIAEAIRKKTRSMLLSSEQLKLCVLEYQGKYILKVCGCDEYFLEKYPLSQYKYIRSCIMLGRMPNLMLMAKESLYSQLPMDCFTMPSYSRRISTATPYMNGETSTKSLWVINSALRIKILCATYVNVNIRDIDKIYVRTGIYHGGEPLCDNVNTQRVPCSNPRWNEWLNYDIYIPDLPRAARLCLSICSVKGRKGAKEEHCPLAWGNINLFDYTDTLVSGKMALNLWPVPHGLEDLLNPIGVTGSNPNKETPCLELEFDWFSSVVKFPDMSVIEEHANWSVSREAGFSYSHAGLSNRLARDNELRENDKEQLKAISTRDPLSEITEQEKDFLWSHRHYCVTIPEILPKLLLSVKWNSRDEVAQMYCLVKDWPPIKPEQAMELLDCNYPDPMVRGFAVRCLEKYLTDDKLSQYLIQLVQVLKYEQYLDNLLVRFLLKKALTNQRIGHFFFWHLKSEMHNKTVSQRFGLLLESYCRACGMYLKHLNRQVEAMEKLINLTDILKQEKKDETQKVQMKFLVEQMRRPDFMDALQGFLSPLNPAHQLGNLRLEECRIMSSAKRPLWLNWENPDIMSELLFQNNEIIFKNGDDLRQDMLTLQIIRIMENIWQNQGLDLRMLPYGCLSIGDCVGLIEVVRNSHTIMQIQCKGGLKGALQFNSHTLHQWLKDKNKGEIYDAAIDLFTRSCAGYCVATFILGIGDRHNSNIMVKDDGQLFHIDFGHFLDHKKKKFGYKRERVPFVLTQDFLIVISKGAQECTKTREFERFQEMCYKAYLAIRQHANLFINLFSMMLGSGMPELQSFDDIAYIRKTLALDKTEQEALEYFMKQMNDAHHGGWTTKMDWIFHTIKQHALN
Sequence of PI3K-alpha (P27986 whole entry partner, species assumed): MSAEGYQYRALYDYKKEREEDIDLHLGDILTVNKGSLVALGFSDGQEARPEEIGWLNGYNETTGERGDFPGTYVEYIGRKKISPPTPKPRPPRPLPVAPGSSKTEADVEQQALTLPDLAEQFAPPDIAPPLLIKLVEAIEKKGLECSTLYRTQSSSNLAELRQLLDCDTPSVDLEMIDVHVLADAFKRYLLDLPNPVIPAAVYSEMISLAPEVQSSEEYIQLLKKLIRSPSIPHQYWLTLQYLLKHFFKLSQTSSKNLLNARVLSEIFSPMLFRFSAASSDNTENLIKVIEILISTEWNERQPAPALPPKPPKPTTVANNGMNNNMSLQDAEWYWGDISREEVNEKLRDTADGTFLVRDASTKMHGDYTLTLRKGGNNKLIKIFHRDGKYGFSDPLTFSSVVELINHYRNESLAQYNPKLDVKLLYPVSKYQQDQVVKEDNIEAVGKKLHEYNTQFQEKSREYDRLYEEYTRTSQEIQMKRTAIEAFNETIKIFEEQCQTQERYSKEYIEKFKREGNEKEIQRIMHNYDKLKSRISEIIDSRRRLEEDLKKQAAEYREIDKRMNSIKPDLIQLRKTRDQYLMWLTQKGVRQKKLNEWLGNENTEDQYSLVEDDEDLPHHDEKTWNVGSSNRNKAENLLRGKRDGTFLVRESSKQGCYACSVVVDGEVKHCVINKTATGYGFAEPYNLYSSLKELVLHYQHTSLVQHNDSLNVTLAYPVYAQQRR

| IC50 (PI3K-alpha) [nM] | IC50 (Human mTOR) [nM] | IC50 (PI3K-gamma) [µM] | Molecule |
| --- | --- | --- | --- |
| 123 | 1700 | 0.32 | OCc1cccc(-c2nc(N3CCOCC3)c3ccc4c(ccn4Cc4ccccc4)c3n2)c1 [Example 83, [3-(7-benzyl-4-morpholin-4-yl-7H-pyrrolo[2,3-h]quinazolin-2-yl)phenyl]methanol] |
| 1760 | 1600 | 4 | COC(=O)c1ccc(-c2nc(N3CCOCC3)c3ccc4c(ccn4C)c3n2)cc1 [Example 36, Methyl 4-(7-methyl-4-morpholin-4-yl-7H-pyrrolo[2,3-h]quinazolin-2-yl)benzoate] |
| 12000 | 1250 | 6.17 | Cn1ccc2c3nc(-c4ccc(NC(=O)c5ccc(F)cc5)cc4)nc(N4CCOCC4)c3ccc21 [Example 19, 4-fluoro-N-[4-(7-methyl-4-morpholin-4-yl-7H-pyrrolo[2,3-h]quinazolin-2-yl)phenyl]benzamide] |
| 245 | 2250 | 5.75 | O=C(OCc1ccccc1)N1CCC(S(=O)(=O)n2ccc3c4nc(-c5cccc(O)c5)nc(N5CCOCC5)c4ccc32)CC1 [Example 66, benzyl 4-{[2-(3-hydroxyphenyl)-4-morpholin-4-yl-7H-pyrrolo[2,3-h]quinazolin-7-yl]sulfonyl}piperidine-1-carboxylate] |
| 65 | 130 | 0.082 | CS(=O)(=O)n1ccc2c3nc(-c4cncc(O)c4)nc(N4CCOCC4)c3ccc21 [Example 76, 5-[7-(methylsulfonyl)-4-morpholin-4-yl-7H-pyrrolo[2,3-h]quinazolin-2-yl]pyridin-3-ol] |
| > 10000 | 1400 | 9.85 | Cn1ccc2c3nc(-c4ccc(NC(=O)c5cccnc5)cc4)nc(N4CCOCC4)c3ccc21 [Example 17, N-[4-(7-methyl-4-morpholin-4-yl-7H-pyrrolo[2,3-h]quinazolin-2-yl)phenyl]nicotinamide] |
| 111 | 16 | 0.147 | O=Cc1c[nH]c2ccc3c(N4CCOCC4)nc(-c4cccc(O)c4)nc3c12 [Example 82, 2-(3-hydroxyphenyl)-4-morpholin-4-yl-7H-pyrrolo[2,3-h]quinazoline-9-carbaldehyde] |
| 3310 | 390 | 2.09 | CCOC(=O)Nc1ccc(-c2nc(N3CCOCC3)c3ccc4c(ccn4C)c3n2)cc1 [Example 20, ethyl [4-(7-methyl-4-morpholin-4-yl-7H-pyrrolo[2,3-h]quinazolin-2-yl)phenyl]carbamate] |
| 322 | 4550 | 3.62 | CN(C)CCn1ccc2c3nc(-c4cccc(O)c4)nc(N4CCOCC4)c3ccc21 [Example 32, 3-{7-[2-(dimethylamino)ethyl]-4-morpholin-4-yl-7H-pyrrolo[2,3-h]quinazolin-2-yl}phenol] |
| 2350 | 1650 | > 10 | CC(O)c1cccc(-c2nc(N3CCOCC3)c3ccc4c(ccn4C)c3n2)c1 (stereo not drawn) [Example 24, 1-[3-(7-methyl-4-morpholin-4-yl-7H-pyrrolo[2,3-h]quinazolin-2-yl)phenyl]ethanol] |
| 4030 | > 20000 | 2.48 | CN(C)CCn1ccc2c3nc(-c4cccc(OCc5ccccc5)c4)nc(N4CCOCC4)c3ccc21 [Example 31, 2-{2-[3-(benzyloxy)phenyl]-4-morpholin-4-yl-7H-pyrrolo[2,3-h]quinazolin-7-yl}-N,N-dimethylethanamine] |
| 775 | 1350 | 4.89 | CC(C)(C)OC(=O)Cn1ccc2c3nc(-c4ccc(N)nc4)nc(N4CCOCC4)c3ccc21 [Example 60, tert-butyl [2-(6-aminopyridin-3-yl)-4-morpholin-4-yl-7H-pyrrolo[2,3-h]quinazolin-7-yl]acetate] |
| 216 | 420 | 0.209 | Oc1cccc(-c2nc(N3CCOCC3)c3ccc4c(ccn4Cc4ccccc4)c3n2)c1 [Example 46, 3-(7-benzyl-4-morpholin-4-yl-7H-pyrrolo[2,3-h]quinazolin-2-yl)phenol] |
| 668 | 2350 | > 10 | COc1ncc(-c2nc(N3CCOCC3)c3ccc4c(ccn4C)c3n2)cn1 [Example 50, 2-(2-methoxypyrimidin-5-yl)-7-methyl-4-morpholin-4-yl-7H-pyrrolo[2,3-h]quinazoline] |
| 239 | 125 | 0.634 | Cn1ccc2c3nc(-c4ccc(NC(=O)Nc5ccc(C(F)(F)F)cc5)cc4)nc(N4CCOCC4)c3ccc21 [Example 14, 1-[4-(7-methyl-4-morpholin-4-yl-7H-pyrrolo[2,3-h]quinazolin-2-yl)phenyl]-3-[4-(trifluoromethyl)phenyl]urea] |
| 2000 | 355 | 1.33 | CC(C)c1ccc(NC(=O)Nc2ccc(-c3nc(N4CCOCC4)c4ccc5c(ccn5C)c4n3)cc2)cc1 [Example 12, 1-(4-isopropylphenyl)-3-[4-(7-methyl-4-morpholin-4-yl-7H-pyrrolo[2,3-h]quinazolin-2-yl)phenyl]urea] |
| 212 | 545 | 1.19 | CS(=O)(=O)n1ccc2c3nc(-c4cccc(CO)c4)nc(N4CCOCC4)c3ccc21 [Example 74, {3-[7-(methylsulfonyl)-4-morpholin-4-yl-7H-pyrrolo[2,3-h]quinazolin-2-yl]phenyl}methanol] |
| 73 | 305 | 0.39 | Cn1ccc2c3nc(-c4cncc(O)c4)nc(N4CCOCC4)c3ccc21 [Example 78, 5-(7-methyl-4-morpholin-4-yl-7H-pyrrolo[2,3-h]quinazolin-2-yl)pyridin-3-ol] |
| 7550 | 3050 | > 10 | CCC(O)c1cccc(-c2nc(N3CCOCC3)c3ccc4c(ccn4C)c3n2)c1 (stereo not drawn) [Example 25, 1-[3-(7-methyl-4-morpholin-4-yl-7H-pyrrolo[2,3-h]quinazolin-2-yl)phenyl]propan-1-ol] |
| 4460 | 1450 | 5.62 | Cn1ccc2c3nc(-c4ccc(NC(=O)c5ccncc5)cc4)nc(N4CCOCC4)c3ccc21 [Example 18, N-[4-(7-methyl-4-morpholin-4-yl-7H-pyrrolo[2,3-h]quinazolin-2-yl)phenyl]isonicotinamide] |
| 62 | 63 | 0.198 | CS(=O)(=O)n1ccc2c3nc(-c4cnc(N)nc4)nc(N4CCOCC4)c3ccc21 [Example 73, 5-[7-(methylsulfonyl)-4-morpholin-4-yl-7H-pyrrolo[2,3-h]quinazolin-2-yl]pyrimidin-2-amine] |
| > 10000 | 16500 | > 10 | COCOc1cncc(-c2nc(N3CCOCC3)c3ccc4c(ccn4S(C)(=O)=O)c3n2)c1 [Example 75, 2-[5-(methoxymethoxy)pyridin-3-yl]-7-(methylsulfonyl)-4-morpholin-4-yl-7H-pyrrolo[2,3-h]quinazoline] |
| 2700 | 75 | 5.13 | Cn1ccc2c3nc(-c4ccc(NC(=O)Nc5ccccn5)cc4)nc(N4CCOCC4)c3ccc21 [Example 9, 1-[4-(7-methyl-4-morpholin-4-yl-7H-pyrrolo[2,3-h]quinazolin-2-yl)phenyl]-3-pyridin-2-ylurea] |
| 2520 | 2150 | 3.31 | Cn1ccc2c3nc(-c4ccc(NC(=O)NCc5ccccn5)cc4)nc(N4CCOCC4)c3ccc21 [Example 15, 1-[4-(7-methyl-4-morpholin-4-yl-7H-pyrrolo[2,3-h]quinazolin-2-yl)phenyl]-3-(pyridin-2-ylmethyl)urea] |

| Molecule | IC50 (PI3K-alpha) [nM] | IC50 (Human mTOR) [nM] | IC50 (PI3K-gamma) [µM] |
| --- | --- | --- | --- |
| 3-(7-methyl-4-morpholin-4-yl-7H-pyrrolo[2,3-h]quinazolin-2-yl)aniline [Example 41] | > 10000 | 1450 | > 10 |
| 2-(1H-indol-4-yl)-7-methyl-4-morpholin-5-yl-7H-pyrrolo[2,3-h]quinazoline [Example 49] | 6310 | 340 | 4.66 |
